Like-named read-outs stand apart in the source and are kept apart here.

Test [1] deals with HeLa-MaTu-ADR, multidrug-resistant human cervical carcinoma cells. The experiment in a line: Proliferation assay (crystal violet), HeLa-MaTu-ADR. The test is classed as cell-based. The settings on record: Method 3, read-out: Inhibition of HeLa/MaTu/ADR cell proliferation, IC50. The protocol:
(§1) Cultivated tumour cells (NCI-H460, human non-small cell lung carcinoma cells, ATCC HTB-177; DU145, hormone-independent human prostate carcinoma cells, ATCC HTB-81; HeLa-MaTu, human cervical carcinoma cells, EPO-GmbH, Berlin; HeLa-MaTu-ADR, multidrug-resistant human cervical carcinoma cells, EPO-GmbH, Berlin; HeLa human cervical tumour cells, ATCC CCL-2; Caco-2 human colorectal carcinoma, ATCC HTB-37; B16F10 mouse melanoma cells, ATCC CRL-6475) were plated at a density of 5000 cells/well (DU145, HeLa-MaTu-ADR), 3000 cells/well (NCI-H460, HeLa-MaTu, HeLa), 1500 cells/well (Caco-2), or 1000 cells/well (B16 F10) in a 96-well multititer plate in 200 μL of their respective growth medium supplemented 10% fetal calf serum. After 24 hours, the cells of one plate (zero-point plate) were stained with crystal violet (see below), while the medium of the other plates was replaced by fresh culture medium (200 μL), to which the test substances were added in various concentrations (0 M, as well as in the range of […]; the final concentration of the solvent dimethylsulfoxide was 0.5%). The cells were incubated for 4 days in the presence of test substances. Cell proliferation was determined by staining the cells with crystal violet: the cells were fixed by adding 20 μL/measuring point of an 11% glutaric aldehyde solution for 15 minutes at room temperature. After three washing cycles of the fixed cells with water, the plates were dried at room temperature. The cells were stained by adding 100 μL/measuring point of a 0.1% crystal violet solution (pH 3.0). After three washing cycles of the stained cells with water, the plates were dried at room temperature. The dye was dissolved by adding 100 μL/measuring point of a 10% acetic acid solution. The absorbance was determined by photometry at a wavelength of 595 nm. The change of cell number, in percent, was calculated by normalization of the measured values to the absorbance values of the zero-point plate (=0%) and the absorbance of the untreated (0 M) cells (=100%). The IC50 values were determined by means of a 4 parameter fit.

Test [2] deals with Caco-2 human colorectal carcinoma. The experiment in a line: Proliferation assay (crystal violet), Caco-2. The settings on record: Method 3, read-out: Inhibition of Caco-2 cell proliferation, IC50. In kind it is cell-based. The method, then:
as §1

For test [3], the system named is HeLa human cervical tumour cells. Put plainly: Proliferation assay (crystal violet), HeLa. In kind it is cell-based. Particulars: Method 3, read-out: Inhibition of HeLa cell proliferation, IC50. An outline of the steps:
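Cells were seeded at 3000/well (NCI-H460, HeLa), 5000/well (HeLa-MaTu-ADR) or 1500/well (Caco-2) in medium with 10% FCS. After 24 h, compounds ([…], 0.5% DMSO) were added for 4 days. Crystal violet absorbance at 595 nm was normalized to a zero-point plate and untreated cells; IC50 came from a 4-parameter fit.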

Test [4] deals with DU145, hormone-independent human prostate carcinoma cells. The experiment in a line: Proliferation assay (crystal violet), DU145. In kind it is cell-based. Particulars: Method 3, read-out: Inhibition of DU145 cell proliferation, IC50. The method, then:
as §1

Test [5] addresses CDK2/CycE (Homo sapiens (Human), UniProt P24941). The experiment in a line: CDK2/CycE kinase assay (TR-FRET). In kind it is biochemical. Particulars: Method 2. An outline of the steps: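 TR-FRET measurement of inhibition of phosphorylation of a biotinylated peptide substrate. Enzyme complex consisted of human CDK2 and CycE, each as a GST fusion made in Sf9 cells and purified over glutathione-Sepharose.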
A general note: In TR-FRET formats the signal depends on donor and acceptor labels being close together.

Test [6] addresses CDK9/CycT1 (Homo sapiens (Human), UniProt P50750). Put plainly: CDK9/CycT1 kinase assay (TR-FRET). The test is classed as biochemical. Particulars: Method 1. A digest of the protocol:
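TR-FRET read-out of kinase inhibition, with a biotin-Ttds-tagged peptide as substrate. Enzyme: human CDK9 and CycT1, full-length with His tags, produced in insect cells and purified on Ni-NTA.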

The test system of test [7] is NCI-H460, human non-small cell lung carcinoma cells. Put plainly: Proliferation assay (crystal violet), NCI-H460. The test is classed as cell-based. Particulars: Method 3, read-out: Inhibition of NCI-H460 cell proliferation, IC50. The protocol: as §1
In test [8] the test system is B16F10 mouse melanoma cells. The experiment in a line: Proliferation assay (crystal violet), B16F10. In kind it is cell-based. The settings on record: Method 3, read-out: Inhibition of B16F10 cell proliferation, IC50. The protocol:
as §1

Setting [9] is: Homo sapiens, Caco-2, Caco-2 cells.
Where [10] appears, read: Homo sapiens, DU-145, DU145 cells.
Setting [11] is: Homo sapiens, NCI-H460, NCI-H460 cells.
Setting [12] is: Mus musculus, B16-F10, B16F10 cells.

CDK9/CycT1, sequence (P50750 whole entry): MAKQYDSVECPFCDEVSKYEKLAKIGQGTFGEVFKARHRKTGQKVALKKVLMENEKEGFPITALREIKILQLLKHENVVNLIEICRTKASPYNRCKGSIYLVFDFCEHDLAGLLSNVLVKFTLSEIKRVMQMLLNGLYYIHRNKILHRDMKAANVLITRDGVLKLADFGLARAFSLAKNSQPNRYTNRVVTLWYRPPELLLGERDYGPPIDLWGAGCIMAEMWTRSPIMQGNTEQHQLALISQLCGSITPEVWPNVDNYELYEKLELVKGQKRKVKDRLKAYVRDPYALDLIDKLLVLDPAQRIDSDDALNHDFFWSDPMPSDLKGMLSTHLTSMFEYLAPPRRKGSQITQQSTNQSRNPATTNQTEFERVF
CDK9/CycT1, sequence (O60563 whole entry partner): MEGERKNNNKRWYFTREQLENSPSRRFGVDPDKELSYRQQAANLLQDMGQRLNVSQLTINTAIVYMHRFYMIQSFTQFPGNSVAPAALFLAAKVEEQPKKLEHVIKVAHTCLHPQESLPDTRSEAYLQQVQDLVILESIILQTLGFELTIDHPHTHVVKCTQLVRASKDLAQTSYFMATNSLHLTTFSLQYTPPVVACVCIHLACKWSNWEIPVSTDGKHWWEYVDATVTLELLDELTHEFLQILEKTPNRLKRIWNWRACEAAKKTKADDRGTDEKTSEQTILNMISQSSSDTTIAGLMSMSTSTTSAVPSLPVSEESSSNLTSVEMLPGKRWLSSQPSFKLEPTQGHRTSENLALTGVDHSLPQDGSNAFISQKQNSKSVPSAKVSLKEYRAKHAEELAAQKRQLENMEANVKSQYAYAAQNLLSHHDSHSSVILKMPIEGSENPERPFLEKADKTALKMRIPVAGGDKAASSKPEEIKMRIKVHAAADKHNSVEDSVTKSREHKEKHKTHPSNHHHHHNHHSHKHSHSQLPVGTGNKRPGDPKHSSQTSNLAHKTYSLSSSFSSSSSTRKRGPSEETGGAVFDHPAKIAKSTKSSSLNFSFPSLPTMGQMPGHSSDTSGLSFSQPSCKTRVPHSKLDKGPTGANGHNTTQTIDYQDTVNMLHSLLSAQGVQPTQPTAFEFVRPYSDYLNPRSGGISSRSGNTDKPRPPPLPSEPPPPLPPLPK

Regarding `CC#CCOc1cc(F)ccc1-c1ncnc(Nc2cccc(CS(C)(=N)=O)c2)n1` (single isomer, unassigned) [Example 75, 4-[2-(But-2-yn-1-yloxy)-4-fluorophenyl]-N-{3-[(S-methylsulfonimidoyl)methyl]phenyl}-1,3,5-triazin-2-amine], the IC50 in test [1] worked out at 210 nM; in test [2] (Caco-2 cells) it was 310 nM; in test [3], 260 nM; in test [4] (DU145 cells), 170 nM; in test [5], 450 nM; in test [6], 4 nM. In addition, the IC50 in test [7] (NCI-H460 cells) was determined as 220 nM; in test [8] (B16F10 cells), 240 nM.

As to `CNC(=O)N=S(C)(=O)Cc1cccc(Nc2ncnc(-c3ccc(F)cc3OC)n2)c1` (racemic) [Example 15, (rac)-1-[(3-{[4-(4-Fluoro-2-methoxyphenyl)-1,3,5-triazin-2-yl]amino}benzyl)(methyl)oxido-λ^6-sulfanylidene]-3-methylurea], the IC50 was found to be 940 nM in test [1] (Homo sapiens, HeLa); 1000 nM in test [2] (setting [9]); 390 nM in test [3] (Homo sapiens, HeLa); 370 nM in test [4] (setting [10]); 930 nM in test [5]; 7 nM in test [6]. The IC50 in test [7] (setting [11]) turned out to be 1000 nM; in test [8] (setting [12]) it was 620 nM.

Take `COc1cc(F)ccc1-c1ncnc(Nc2cc(F)c(F)c(CS(C)(=O)=NC#N)c2)n1` (racemic) [Example 105, (rac)-[(2,3-Difluoro-5-{[4-(4-fluoro-2-methoxyphenyl)-1,3,5-triazin-2-yl]amino}benzyl)(methyl)-oxido-λ^6-sulfanylidene]cyanamide]: the IC50 in test [1] (Homo sapiens, HeLa) came out at 71 nM; in test [2] (setting [9]) it was 81 nM; in test [3] (Homo sapiens, HeLa), 110 nM; in test [4] (setting [10]), 120 nM; in test [5], 140 nM; in test [6], 3 nM. For the same compound, the IC50 in test [7] (setting [11]) was determined as 130 nM; in test [8] (setting [12]), 140 nM.

`CS(=N)(=O)Cc1cccc(Nc2ncnc(-c3ccc(F)cc3OCc3cc(F)c(F)c(F)c3)n2)c1` (racemic) [Example 104, (rac)-4-{4-Fluoro-2-[(3,4,5-trifluorobenzyl)oxy]phenyl}-N-{3-[(S-methylsulfonimidoyl)methyl]phenyl}-1,3,5-triazin-2-amine]: the IC50 in test [1] (Homo sapiens, HeLa) was 240 nM; in test [2] (setting [9]), 150 nM; in test [3] (Homo sapiens, HeLa), 110 nM; in test [4] (setting [10]), 120 nM; in test [5], 54 nM; in test [6], 2 nM. In addition, the IC50 in test [7] (setting [11]) turned out to be 110 nM; in test [8] (setting [12]), 120 nM.

As to `C=C(CO)COc1cc(F)ccc1-c1ncnc(Nc2cccc(CS(C)(=N)=O)c2)n1` (racemic) [Example 112, (rac)-2-({5-Fluoro-2-[4-({3-[(S-methylsulfonimidoyl)methyl]phenyl}amino)-1,3,5-triazin-2-yl]phenoxy}methyl)prop-2-en-1-ol], the IC50 worked out at 390 nM in test [1] (Homo sapiens, HeLa); 350 nM in test [2] (setting [9]); 330 nM in test [3] (Homo sapiens, HeLa); 300 nM in test [4] (setting [10]); 730 nM in test [5]; 4 nM in test [6]. In addition, the IC50 in test [7] (setting [11]) and in test [8] (setting [12]) was 320 nM throughout.

Take `CS(=N)(=O)Cc1cccc(Nc2ncnc(-c3ccc(F)cc3OCc3ccnc(F)c3)n2)c1` (single isomer, unassigned) [Example 83, 4-{4-Fluoro-2-[(2-fluoropyridin-4-yl)methoxy]phenyl}-N-{3-[(S-methylsulfonimidoyl)methyl]phenyl}-1,3,5-triazin-2-amine]: the IC50 in test [1] (Homo sapiens, HeLa) came to 640 nM; in test [2] (setting [9]), 210 nM; in test [3] (Homo sapiens, HeLa) it was 110 nM; in test [4] (setting [10]), 180 nM; in test [5], 270 nM; in test [6], 2 nM. Moreover, the figures for the IC50 in test [7] (setting [11]) and in test [8] (setting [12]) were 180 nM and 220 nM, respectively.

Regarding `CC#CCOc1cc(F)ccc1-c1ncnc(Nc2cccc(CS(C)(=N)=O)c2)n1` (single isomer, unassigned) [Example 74, 4-[2-(But-2-yn-1-yloxy)-4-fluorophenyl]-N-{3-[(S-methylsulfonimidoyl)methyl]phenyl}-1,3,5-triazin-2-amine], the IC50 is 340 nM in test [1] (Homo sapiens, HeLa); 390 nM in test [2] (setting [9]); 310 nM in test [3] (Homo sapiens, HeLa); 360 nM in test [4] (DU145 cells); 590 nM in test [5]; 3 nM in test [6]. Further, the figures for the IC50 in test [7] (setting [11]) and in test [8] (setting [12]) were 330 nM and 340 nM, respectively.

For the compound `CCS(=O)(Cc1cccc(Nc2ncnc(-c3ccc(F)cc3OC)n2)c1)=NC#N` (racemic) [Example 107, (rac)-[Ethyl(3-{[4-(4-fluoro-2-methoxyphenyl)-1,3,5-triazin-2-yl]amino}benzyl)oxido-λ^6-sulfanylidene]cyanamide], the IC50 in test [1] (Homo sapiens, HeLa) is 340 nM; in test [2] (setting [9]) it was 500 nM; in test [3] (Homo sapiens, HeLa), 230 nM; in test [4] (setting [10]), 280 nM; in test [5], 360 nM; in test [6] it was 4 nM. The IC50 in test [7] (setting [11]) worked out at 450 nM; in test [8] (setting [12]), 300 nM.

Regarding `CS(=N)(=O)Cc1cccc(Nc2ncnc(-c3ccc(F)cc3OCc3ccnc(F)c3)n2)c1` (racemic) [Example 82, (rac)-4-{4-Fluoro-2-[(2-fluoropyridin-4-yl)methoxy]phenyl}-N-{3-[(S-methylsulfonimidoyl)methyl]phenyl}-1,3,5-triazin-2-amine], the IC50 in test [1] (Homo sapiens, HeLa) came out at 190 nM; in test [2] (setting [9]) it was 180 nM; in test [3] (Homo sapiens, HeLa) it was 180 nM; in test [4] (setting [10]), 130 nM; in test [5] it was 360 nM; in test [6] it was 7 nM. The results for the IC50 in test [7] (setting [11]) and in test [8] (setting [12]) were 180 nM and 150 nM, respectively.

For `CS(=N)(=O)Cc1cccc(Nc2ncnc(-c3ccc(F)cc3OCc3cccc(Cl)c3)n2)c1` (racemic) [Example 92, (rac)-4-{2-[(3-Chlorobenzyl)oxy]-4-fluorophenyl}-N-{3-[(S-methylsulfonimidoyl)methyl]phenyl}-1,3,5-triazin-2-amine], the IC50 in test [1] (Homo sapiens, HeLa) is 360 nM; in test [2] (setting [9]) it was 430 nM; in test [3] (Homo sapiens, HeLa) it was 470 nM; in test [4] (setting [10]), 380 nM; in test [5], 250 nM; in test [6], 4 nM. The IC50 in test [7] (setting [11]) came out at 170 nM; in test [8] (setting [12]) it was 390 nM.

Consider `CS(=N)(=O)Cc1cccc(Nc2ncnc(-c3ccc(F)cc3OCc3ccc(F)cc3)n2)c1` (racemic) [Example 56, (rac)-4-{4-Fluoro-2-[(4-fluorobenzyl)oxy]phenyl}-N-{3-[(S-methylsulfonimidoyl)methyl]phenyl}-1,3,5-triazin-2-amine], for which the IC50 in test [1] (Homo sapiens, HeLa) stood at 780 nM; in test [2] (setting [9]), 860 nM; in test [3] (Homo sapiens, HeLa), 370 nM; in test [4] (setting [10]) it was 370 nM; in test [5], 410 nM; in test [6], 6 nM. The IC50 in test [7] (setting [11]) is 350 nM; in test [8] (setting [12]), 470 nM.
